Test results taken from PubChem BioAssay (NCI).
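96-well plates; 48 h exposure; 5 concentrations. Endpoints by linear interpolation between flanking doses. Not reached: highest tested concentration assigned. At the GI50, growth is halved. At the TGI there is no net growth.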

Key:
Assay in all cases: NCI tumour cell line growth inhibition, 48 h
[1] = system: ACHN renal
[2] = system: HCC-2998 colon
[3] = system: HS 578T breast
[4] = system: SF-295 CNS
[5] = system: SK-MEL-2 melanoma
[6] = system: UACC-257 melanoma
[7] = system: CAKI-1 renal
[8] = system: HL-60(TB) leukemia

Compound	GI50 [1] [µM]	TGI [1] [µM]	GI50 [2] [µM]	TGI [2] [µM]	GI50 [3] [µM]	TGI [3] [µM]	GI50 [4] [µM]	TGI [4] [µM]	GI50 [5] [µM]	TGI [5] [µM]	GI50 [6] [µM]	TGI [6] [µM]	GI50 [7] [µM]	TGI [7] [µM]	GI50 [8] [µM]	TGI [8] [µM]
COc1c2ccccc2c(O)c2c(=O)c(C(=O)O)cn(C)c12	> 100	> 100	> 100	> 100	> 100	> 100	28.8	> 100	> 100	> 100	> 100	> 100				
Nc1ccn([C@H]2C[C@@H](O)[C@@H](CO)S2)c(=O)n1	8.65	> 100	> 100	> 100	> 100	> 100	> 100	> 100	> 100	> 100	> 100	> 100	8.4	> 100	14.5	> 100
O=C(Nc1cnn2ccc(N3CCC[C@@H]3c3cc(F)ccc3F)nc12)N1CC[C@H](O)C1	> 100	> 100	> 100	> 100	> 100	> 100	> 100	> 100	> 100	> 100			> 100	> 100	> 100	> 100
CC[N+](CC)=c1ccc2nc3c(cc(NCc4ccccc4)c4ccccc43)oc-2c1	0.398	1.98	0.338	1.26	0.522	3.27	0.2	0.51	0.737	2.25	0.159	0.387	0.231	1.54	0.209	1.11
C=C(CN1CCN(c2cccc(C(F)(F)F)c2)CC1)c1ccc(C(=O)Nc2ccccc2N)cc1	0.92	11.1			0.491	> 36.3	0.537	3.88	3.44	32.2	0.762	17.8	0.625	> 17.6	0.118	0.856
O=c1cccc(C#Cc2ccccc2)o1	7.7	21.5			6.5	25.9	5.03	13.8	4.71	> 33.9	7.74	22.4	5.05	15.3	0.71	8.17
Cc1ccc(N=C2CSc3nnc(-c4csc5c4CCCC5)n3N2)cc1	2.94	> 50	1.31	> 50	0.168	40.2	0.148	14	0.221	> 50	> 50	> 50			0.12	0.298
COc1cc2c3c(n(CCCN4CCN(C)CC4)c(=O)c2cc1OC)-c1cc2c(cc1C3=O)OCO2	10.1	22.4			13.9	73	10.7	31.7	> 100	> 100	> 100	> 100	10.3	23.7	19.5	57.6
Cc1ccc(-c2ccc(Nc3c4ccccc4nc4ccccc34)cc2)cn1		6.76		44.7		58.3		11.9		3.63		28.5		9.02		
COc1cc2cc(Oc3ccc(NC(=O)Nc4ccccc4)cc3)c(C)nc2cc1OCCN1CCCCC1	5.74	10.3	5.62	10.5	5.79	14.2	6	11.2	5.96	12.1	6.46	12.4	4.94	10	6.43	13.3
NCCNCC(O)CO (stereo not given)		> 100				> 100		> 100		> 100		> 100		> 100		> 100
Cn1ccc(=Nc2ccc(NC(=O)c3ccc(N=c4ccn(C)c5ccc([N+](=O)[O-])cc45)cc3)cc2)cc1	> 100	> 100	3.85	> 100	16.4	92.6	12.8	72.6	79.1	> 100	12.5	74.5	> 100	> 100	5.34	> 100
O=C(O)c1cc2ccccc2c(N=Nc2c([N+](=O)[O-])cc([N+](=O)[O-])cc2S(=O)(=O)O)c1O		> 100				> 100		> 100		> 100		> 100		> 100		
COc1cc(/C=C/C(=O)c2cc(F)c(Cl)cc2Cl)cc(OC)c1OC	60.6	> 100	73	> 100	28.7	> 100	44.4	> 100	15.8	58.7	42	> 100	27.6	> 100	16.6	71.9
O=C1/C(=C/c2ccccc2)SC(=Nc2ccccc2)N1Nc1ccccc1	23	> 100	20	> 100	29	> 100	16.3	> 100	14.9	43.7	14.2	> 100	13.7	> 100	10.4	68.9
CCOC(=O)/C=C1\SC(=Nc2ccc(C#N)cc2)N(CCN2C(=O)/C(=C/C(=O)OCC)SC2=Nc2ccc(C#N)cc2)C1=O	4.62	17.9	2.4	6.61	3.84	> 70.5	5.59	25.6	12.1	28.8	14	36.4	3.57	14.9	2.66	25.6
NC(=O)c1csc(C2C=CC(CO)O2)n1 (stereo not given)		> 100		> 100				> 10		> 100		> 100		> 100		> 100

Compound	GI50 [1] [µM]	TGI [1] [µM]	GI50 [2] [µM]	TGI [2] [µM]	GI50 [3] [µM]	TGI [3] [µM]	GI50 [4] [µM]	TGI [4] [µM]	GI50 [5] [µM]	TGI [5] [µM]	GI50 [6] [µM]	TGI [6] [µM]	GI50 [7] [µM]	TGI [7] [µM]	GI50 [8] [µM]	TGI [8] [µM]
N#C/C(=C/C=C(\Cl)c1ccc(Cl)cc1)C(N)=O	2.37	6.39	2.66	7.71	3.07	9.91	1.65	3.45	> 52.5	> 93.6	6.17	11.4	1.29	2.99		
C/C=C(\C)C(=O)O[C@@H]1C(O)[C@H]2OC(COC(=O)CCC(=O)CCCCCC[C@H](CCCCC)O[C@@H]3OC(C)[C@H](OC(C)=O)C(O)[C@H]3O2)[C@H]1OC(=O)/C=C/c1ccccc1 (stereo not given in full)	0.0175	12.3	1.79	> 100	< 0.01	23.3	< 0.01	1.15	0.322	4.27	< 0.0109	1.04			0.127	18.9
COC(=O)[C@]12CC[C@@H](C)[C@H](C)[C@@H]1C1=CC[C@@H]3[C@@]4(C)C(C=O)=C[C@@](C)(COC(C)=O)[C@@H]4[C@H](O)C[C@@]3(C)[C@]1(C)CC2	1.92	4.32	1.83	3.6	2.67	9.43	1.67	3.54	2.61	6.15	2.02	4.8	2.72	12.3	2.53	5.42
CC(C)(C)OC(=O)NCCCCCCCCn1c2c(c3ccccc3c1=O)C(=O)c1ccccc1-2	10.9	> 30	> 50	> 50	7.04	27.5	11.1	> 41.6	5.61	19.9	> 50	> 50	11.8	> 36.5	> 50	> 50
COc1ccc(C2NCCc3c2[nH]c2ccccc32)cc1CN1CCN(c2ccc(F)cc2)CC1 (stereo not given)	1.87	3.69	1.61	3.33	1.6	3.75	1.75	3.4	2.14	3.93	1.76	3.26	1.57	3.31	2.14	4.77
COc1ccc2cc(C(=O)/C=C/c3cccc(Cl)c3Cl)ccc2c1	3.76	33			50.5	> 100	5.94	> 100	> 50.9	98.3	39.6	> 100	5.6	80.6	24.2	> 100
NC1=NC(c2ccccc2)N=C(Nc2ccccc2)N1 (stereo not given)	> 100	> 100			68.5	> 100	> 100	> 100	> 100	> 100	> 100	> 100	> 100	> 100	> 100	> 100
COc1ccc(/C=C(/C(=O)N2CCCC2)c2cc(OC)c(OC)c(OC)c2)cc1N	5.73	> 100	6.76	> 100	2.41	> 100	1.11	> 100	4.72	> 100	> 100	> 100	2.35	> 100	2.07	7.65
CN1CCN(c2ccc(-c3cnc4c(-c5csc6ccccc56)cnn4c3)cc2)CC1	2.95	6.13	6	> 15	10.9	> 15	> 15	> 15	> 15	> 15	13.8	> 15	11.3	> 15	5.89	> 15
O=C(Oc1ccc([N+](=O)[O-])cc1)N1CCN(Cc2cccc(Oc3ccccc3)c2)CC1	> 100	> 100	> 100	> 100	> 100	> 100	62.9	> 100	> 67.1	> 100	> 76.9	> 100	> 73.6	> 100	24.2	> 100
Cc1cc(S(=O)(=O)Nc2nc3ccsc3c(=O)n2Cc2ccco2)c(S)cc1Cl	> 100	> 100	> 100	> 100	81	> 100	62.8	> 100			> 100	> 100	> 100	> 100	25.5	> 100
Cc1ccc(S(=O)(=O)Oc2ccc3c4c(c(=O)oc3c2)CCCCC4)cc1	> 100	> 100	> 100	> 100	96.2	> 100	> 100	> 100	> 100	> 100			> 100	> 100		
O=S(=O)(NC(=S)Nc1ccccc1)c1ccc(N2N=C3c4ccccc4CC3C2c2cccs2)cc1 (stereo not given)	26.4	67.7	13.9	30.8	20.9	68	18.9	41.8	59.9	> 100	29.1	79.9	18.5	43.8		
CCCCn1c2c(c3ccccc3c1=O)C(=O)c1ccccc1-2						> 100		> 100		> 100		> 100		> 100		> 100
N#C/C(=C\c1ccc(Br)cc1)n1nnc2cccc(F)c21	1.41	3.48	1.56	3.13	2.5	8.14	1.92	3.88	1.96	5.14	1.86	5.43	2.05	4.99		
COc1cc2c3c(n(CCN)c(=O)c2cc1OC)-c1cc2c(cc1C3=O)OCO2	0.275				1.85	4.51	< 0.0352	2.09	3.22	10.5	3.84	11.2	< 0.0145	0.786		> 100
